Experimental data taken from PubChem BioAssay (NCI).
Several values for one entry are separate records, joined by “and”; a condition that tells them apart may be missing. Identical values can stand only once.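 The compound was tested at five concentrations on cells cultured in 96-well plates, with a 48-hour exposure period. Abbreviation: GI50, concentration required for 50% inhibition of growth. The concentration for full growth arrest is given as TGI.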

Tests used:
Assay in all cases: growth of human tumour cells (NCI), 48 h
[1] = test system: CCRF-CEM leukemia
[2] = test system: EKVX NSCLC
[3] = test system: IGROV1 ovarian
[4] = test system: M14 melanoma
[5] = test system: MALME-3M melanoma
[6] = test system: OVCAR-8 ovarian
[7] = test system: SF-268 CNS
[8] = test system: SN12C renal
[9] = test system: SW-620 colon
[10] = test system: U251 CNS

| Compound | TGI [1] [µM] | TGI [2] | TGI [3] | TGI [4] [µM] | TGI [5] [µM] | TGI [6] [µM] | TGI [7] | TGI [8] | TGI [9] | TGI [10] [µM] | GI50 [1] [µM] | GI50 [2] [µM] | GI50 [3] [nM] | GI50 [4] [µM] | GI50 [5] [µM] | GI50 [6] [µM] | GI50 [7] [µM] | GI50 [8] [µM] | GI50 [9] [µM] | GI50 [10] [µM] |
| --- | --- | --- | --- | --- | --- | --- | --- | --- | --- | --- | --- | --- | --- | --- | --- | --- | --- | --- | --- | --- |
| Cc1ccccc1N=Nc1c(-c2ccccc2)nn(C(=O)CC(=O)Nc2cccc(Cl)c2)c1-c1ccccc1 | 25.4 | > 31.6 µM | > 31.6 µM | > 31.6 | > 100 | > 31.6 | > 31.6 µM | 22.9 µM | > 39.2 µM | 19.6 | – | – | – | – | – | – | – | – | – | – |
| CCCCCCCCCCOC(=O)c1cc[n+](C)cc1 | 37.7 | 30.5 µM | 30.4 µM | 32.2 | 30.7 | 31.4 | 35.3 µM | 30.7 µM | 34.5 µM | 29.1 | – | – | – | – | – | – | – | – | – | – |
| COc1ccc(-c2nn3ncccc3c2-c2ccnc(Nc3ccc4c(c3)OCCO4)n2)cc1 | > 25 | > 25 µM | > 19.6 µM | > 25 | > 25 | > 25 | > 25 µM | > 25 µM | > 25 µM | > 25 | 6.07 | 9.61 | 2170 | 8.55 | 12.5 | 7.3 | 11.1 | 6.5 | 14.4 | 14.3 |
| Cn1cncc1-c1c(F)cncc1NC(=O)c1c(N)nn2cc(F)cnc12 | 22.8 | > 100 µM | 13.8 µM | 91.4 | 68.5 | > 100 | 46.2 µM | 37.6 µM | > 100 µM | > 100 | 0.0723 | 5.18 | 2540 | 0.231 | 5.16 | 5.83 | 4.04 | 3.98 | 4.12 | 4.48 |
| C/C(=N\NC(N)=S)c1sc(-n2nc(-c3ccccc3)cc2-c2ccccc2)nc1C | > 100 | > 100 µM | > 100 µM | > 100 | > 100 | > 100 | > 100 µM | > 100 µM | > 100 µM | > 100 | – | – | – | – | – | – | – | – | – | – |
| CC1(C)C(=O)C(=Cc2ccco2)C1=O | > 100 | > 100 µM | > 100 µM | > 100 | > 100 | > 100 | > 100 µM | > 100 µM | > 100 µM | > 100 | – | – | – | – | – | – | – | – | – | – |
| COc1ccc2c(c1)CCc1c(CO)c(COC(=O)NC(C)C)n(C)c1-2 | 12.5 | > 100 µM | 48.3 µM | 33.8 | 16.2 | 21.2 | 63.8 µM | 45.8 µM | 19.3 µM | 35.8 | – | – | – | – | – | – | – | – | – | – |
| COc1cc2c3c(c1OC)C(=O)C=C3N(S(=O)(=O)c1ccc(C)cc1)CC2 | > 100 | > 100 µM | > 100 µM | > 100 | > 100 | > 100 | > 100 µM | > 100 µM | > 100 µM | > 100 | – | – | – | – | – | – | – | – | – | – |
| CCN(CC)c1nc(NC2CCCCC2)c2nc(N(CC)CC)nc(NC3CCCCC3)c2n1 | > 100 | > 100 µM | > 100 µM | > 100 | > 100 | > 100 | > 100 µM | > 100 µM | > 100 µM | > 100 | – | – | – | – | – | – | – | – | – | – |
| CNCCCNc1c2ccccc2nc2cccc([N+](=O)[O-])c12 | 0.0143 | 0.0226 µM and 0.0389 µM | 0.0201 µM and 0.0279 µM | 0.00846 | 0.00997 | 0.0205 | 0.0166 µM and 0.0211 µM | < 0.0318 µM and 0.0181 µM | 0.0357 µM and 0.0101 µM | 0.0519 | – | – | – | – | – | – | – | – | – | – |
| OC(COc1ccccc1)CN1CCCCC1 (stereo not given) | > 100 | > 100 µM | > 100 µM | > 100 | > 100 | > 100 | > 100 µM | > 100 µM | > 100 µM | > 100 | – | – | – | – | – | – | – | – | – | – |
| C[C@H](NC(=O)c1c(C(F)F)nn(C)c1Oc1cccc(C(F)(F)F)c1)c1ccc(C(=O)O)cc1 | > 100 | > 100 µM | > 100 µM | > 100 | > 100 | > 100 | > 100 µM | > 100 µM | > 100 µM | > 100 | > 100 | > 100 | > 100000 | > 100 | > 100 | > 100 | > 100 | > 100 | > 100 | > 100 |
| O=C(NCc1ccc2ccc3cccnc3c2n1)c1ccc[n+](Cc2ccccc2)c1 | > 100 | > 100 µM | > 100 µM | > 100 | > 100 | > 100 | > 100 µM | > 100 µM | > 100 µM | > 100 | – | – | – | – | – | – | – | – | – | – |
| Cc1ccc(O)c(NC2=C(Cl)C(=O)N(Cc3ccccc3)C2=O)c1 | 29 | > 100 µM | 24.2 µM | 70.6 | 67.5 | 39.3 | 47.1 µM | 32.7 µM | > 100 µM | 43.3 | 4.54 | 35.9 | 6440 | 22.5 | 23 | 18.3 | 18.8 | 14.9 | 32.5 | 19.8 |
| COc1cc2nc(-c3cccc4cccnc34)nc(NC3CCN(Cc4ccccc4)CC3)c2cc1OC | 2.83 | 3.3 µM | 2.31 µM | 3.4 | 3.51 | 2.64 | 2.98 µM | 2.58 µM | 2.01 µM | 2.55 | 0.576 | 1.48 | 930 | 1.52 | 1.83 | 0.647 | 1.14 | 1.11 | 0.509 | 1.05 |
